Assay results reported in article PMC5394417, “Investigating the molecular mechanism of positive and negative allosteric modulators in the calcium-sensing receptor dimer” (Scientific Reports, 2017).

Target: T1, HA-S147A/S170A CaSR mutant (Rattus norvegicus, UniProt P48442, S147A/S170A)
T1 construct: mGluR5 signal peptide (N); expressed in transfected cells; host or cells: HEK293T
T1 sequence (P48442 20-1079 S147A/S170A): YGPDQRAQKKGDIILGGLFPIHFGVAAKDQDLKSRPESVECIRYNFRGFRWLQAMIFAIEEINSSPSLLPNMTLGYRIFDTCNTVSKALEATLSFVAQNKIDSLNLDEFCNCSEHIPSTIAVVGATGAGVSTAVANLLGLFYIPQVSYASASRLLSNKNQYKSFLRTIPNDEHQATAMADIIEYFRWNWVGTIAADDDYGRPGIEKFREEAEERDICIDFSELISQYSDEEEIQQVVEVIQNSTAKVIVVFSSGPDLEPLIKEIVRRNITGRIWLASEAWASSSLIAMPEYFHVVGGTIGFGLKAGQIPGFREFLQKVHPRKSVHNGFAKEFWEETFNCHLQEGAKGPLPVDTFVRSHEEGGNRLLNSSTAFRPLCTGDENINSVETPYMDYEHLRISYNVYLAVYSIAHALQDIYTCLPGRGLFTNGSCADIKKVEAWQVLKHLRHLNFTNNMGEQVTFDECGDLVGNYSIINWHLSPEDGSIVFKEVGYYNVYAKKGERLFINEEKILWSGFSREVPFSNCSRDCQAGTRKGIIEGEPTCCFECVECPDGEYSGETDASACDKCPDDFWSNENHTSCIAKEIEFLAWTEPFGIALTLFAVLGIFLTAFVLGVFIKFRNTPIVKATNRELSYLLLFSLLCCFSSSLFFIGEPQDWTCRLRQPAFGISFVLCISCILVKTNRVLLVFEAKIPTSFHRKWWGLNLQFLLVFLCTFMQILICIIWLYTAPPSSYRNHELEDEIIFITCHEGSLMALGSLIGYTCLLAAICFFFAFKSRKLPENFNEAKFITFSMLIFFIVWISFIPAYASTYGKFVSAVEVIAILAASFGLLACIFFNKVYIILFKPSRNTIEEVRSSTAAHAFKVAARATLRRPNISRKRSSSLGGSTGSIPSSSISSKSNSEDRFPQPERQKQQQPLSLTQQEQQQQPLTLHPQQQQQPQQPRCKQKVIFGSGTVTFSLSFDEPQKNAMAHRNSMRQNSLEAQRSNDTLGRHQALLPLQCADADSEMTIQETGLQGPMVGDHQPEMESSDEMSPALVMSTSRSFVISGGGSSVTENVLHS
Assay: IP-One assay, HEK293T transiently transfected
Assay type: cell-based

[Ca+2] [Ca^2+]
EC50 (Ca^2+ alone): 9.04 mM | Hill coefficient ± S.E.M. (Ca^2+ alone): 3.00 ± 0.07 | pEC50 ± S.E.M. (Ca^2+ alone): 2.04 ± 0.02 | Max ± S.E.M. (normalized to maximum response of WT CaSR): 130 ± 28%
